Values quoted from earlier work, collected in patent US20100284993A1, “Enhancing the Efficacy of Anti-Infective Therapeutics” (priority 2007, published 2010).

Key:
[1] = in vivo
[2] = molecular target: peptidyl prolyl isomerases of the protozoan parasite Trypanosoma cruzi (Trypanosoma cruzi, UniProt Q09734)
[3] = design: unit not given here; conditions: in vivo

Sequence of peptidyl prolyl isomerases of the protozoan parasite Trypanosoma cruzi (Q09734 30-196): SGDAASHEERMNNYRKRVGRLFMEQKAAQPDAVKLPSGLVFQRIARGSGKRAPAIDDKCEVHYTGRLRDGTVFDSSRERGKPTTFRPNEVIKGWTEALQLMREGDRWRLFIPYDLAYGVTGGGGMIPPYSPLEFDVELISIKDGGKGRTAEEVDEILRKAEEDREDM

## C=CC[C@@H]1/C=C(\C)C[C@H](C)C[C@H](OC)[C@H]2O[C@@](O)(C(=O)C(=O)N3CCCC[C@H]3C(=O)O[C@H](/C(C)=C/[C@@H]3CC[C@@H](O)[C@H](OC)C3)[C@H](C)[C@@H](O)CC1=O)[C@H](C)C[C@@H]2OC [FK506]
[1]
  distribution into protected cellular compartments in the blood: 72-98%

## CC[C@@H]1/C=C(\C)[C@@H](O)[C@H](C)C[C@H](OC)[C@H]2O[C@@](O)(C(=O)C(=O)N3CCCC[C@H]3C(=O)O[C@H](/C(C)=C/[C@@H]3CC[C@@H](O)[C@H](OC)C3)[C@H](C)[C@@H](O)CC1=O)[C@H](C)C[C@@H]2OC [L-685,818]
[2]
  binding preference for T. cruzi peptidyl prolyl isomerases over human FKBP: preferentially binds

## C[C@@H](O)[C@H]1C(=O)N2C(C(=O)O)=C(S[C@@H]3CN[C@H](C(=O)Nc4cccc(C(=O)O)c4)C3)[C@H](C)[C@H]12 [ertapenem]
[3]
  half life: four
Pseudomonas aeruginosa
  effectiveness against Pseudomonas aeruginosa: not effective

## C[C@@H](O)[C@H]1C(=O)N2C(C(=O)O)=C(S[C@@H]3CN[C@H](C(=O)N(C)C)C3)[C@H](C)[C@H]12 [meropenem]
[3]
  elimination half life: one
